Data taken from patent publication US20060134126A1, “Peptide constructs for treating disease” (priority 2002, published 2006).
Ends that are not written are not given here.

Tests used:
[1] = system: P. yoelii (non lethal strain 17XNL) sporozoites; assay: Comparison of lots and forms of derG in malaria system (Table 9); assay type: in vivo; conditions: A/J mice, 5 μg two times, TiterMax
Protocol: Four (4) groups of 10 mice (4-to 6-wk-old female A/J) were subcutaneously two times at 3-week intervals with 5 μg of the derG peptide, emulsified in TiterMax™ at 1:1 ratio as previously described. Two other groups of mice treated with TiterMax™ alone and untreated mice served as controls. Fourteen days after the second treatment mice were intravenously challenged with 100 P. yoelii (non lethal strain 17XNL ) sporozoites. Parasitemia was determined by microscopic examination of 200 oil-immersion fields of Geimsa stained-thin blood smears obtained from the mice at 5, 7, and 14 days post challenge.
In particular, the derG(19) peptide contains an additional glycine amino acid inserted between the A 140 and V 142 residues. The rationale for the insertion was that these two residues are involved in the CD4 interaction as disclosed in Konig et al. “MHC class II interaction with CD4 medicated by a region analogous to the MHC class I binding site for CD8”, Nature 1992; 356:796-798.

IFN-γ = assay: Serum IFN-γ by ELISA; assay type: in vivo, mouse; conditions: A/J mice, sera pooled 15 days post challenge
From the text: (§1) Next using another antigen with B and T cell activity two inbred strains of mice, (A/J and Balb/c) were immunized twice at three week intervals with the L.E.A.P.S.™ constructs (J-GF/SF or der-SF/GF) or with the subunits (SF/GF, J and derG) used to make heteroconjugated peptides, and were challenged with 100 Plasmodium yoelii sporozoites 2 weeks after the second immunization and protection efficacy evaluated as before. Four days before challenge, serum was collected from individual animals, pooled and analyzed immediately for antibody to SF/GF peptide sera collected from immunized and protected mice 15 days post challenge were pooled and used for IFN-γ determination by ELISA procedures.

[2] = system: plasmodium yoelii sporozoites; assay: Protection from sporozoite challenge, TCBL derG in inbred mice (Tables 5, 6); assay type: in vivo
From the text: as §1
Another experiment similar to the first except only a single strain of mice (A/J) was used with decreasing doses of the derG in order to evaluate potency as shown in Table 6.

SF/GF peptide = assay: Serum antibody ELISA to SF/GF peptide; assay type: in vivo, mouse
From the text: as §1

B16 melanoma = assay: Allogeneic murine B16 melanoma protection model; assay type: in vivo, mouse; conditions: for Protection: in combination with allogeneic cells
Protocol: In particular, C57/b16 (H2^b) mice are vaccinated with the allogeneic melanoma K1735 (H2^k) at least twice on weekly intervals and then challenged with syngeneic B16 (H2^b) tumors. […] This is clear evidence of cross-priming and the existence of shared antigens.
Peptide constructs were prepared using as T cell binding ligand, either derG (SEQ ID NO. 7), Peptide G (SEQ ID NO. 5). The peptides are synthesized using the FMOC procedure and a double coupling protocol for the first 8 residues. Usually the peptide is prepared with the carboxyl terminus as an amide form. All of the peptides are purified using prepatative HPLC, and analyzed by an analytical HPLC, amino acid analysis and mass spectrophotometer. The peptides are greater than 95%, usually greater than 98%, pure by HPLC criteria. The dry peptides are stored in vials with desiccant at −8° C. • 1) Eight groups of seven mice were injected with 200 μl of the vaccine as shown in FIG. 1. • 2) This was repeated after 7 days. • 3) A further 7 days later, mice were challenged with 200 μl saline containing 5×10^4 live B16 on the contralateral side to vaccination. • 4) Mice were sacrificed when tumor size exceeded 15 mm in either axis.
In order more precisely model the use of clinical allogeneic vaccines, a frozen vaccine was used in the mouse model wherein K-1735 cells were thawed just prior to use. Efficacy in the protection model ranged from 40-10%. Additionally, the antigen TRP2 (a.a. 180-188), found in B16 melanoma, was engineered into L.E.A.P.S.™ constructs and was tested in various permutations in the allogeneic murine melanoma model. Optimization may be necessary.

HSV-1 = assay: Scarification-zosteriform spread model of HSV infection; assay type: in vivo; conditions: A/J mice
Protocol: Groups of 4-to 6-wk old female A/J mice were subcutaneously inoculated once with 25 μg of the derG peptide emulsified in ISA51 adjuvant at a 1:1 ratio before challenge unless otherwise specified. Untreated mice and mice treated with adjuvant served as additional controls. The mice were challenged as specified in methods well known to those of ordinary skill in the art and as exemplified by Goel et al. (“The Ability of an HSV Strain to Initiate Zosteriform Spread Correlates with its Neuroinvasive Disease Potential”, Arch Virol 147:763-773 (2002)) and Goel et al., (“A Modification Of The Epidermal Scarification Model Of Herpes Simplex Virus Infection To Achieve A Reproducible And Uniform Progression Of Disease”, J Virol Meth 106;153-8 (2002)).
In particular, hair is removed by shaving and then Nair® is applied. Twenty-fours later the depilated back of a mouse is scratched or abraded to expose the susceptible epidermal layer and virus rubbed in. To provide more detail, 10 μl of a virus suspension containing 6×10^4 plaque forming-units was pipetted onto a 0.5 cm square of skin on mouse dorsal surface, which was previously abraded using sand paper glued on a pencil eraser. In untreated animals, the primary lesion developed at the inoculation site within 3 days and spread to the associated root, followed by anterograde transport and formation of secondary lesions at sites along the dermatome of the nerves within 5 days. In severe cases, animals died within 8 days post viral challenge. Disease progression and survival were monitored for at least 10 days. […] The progression and the severity of the lesions was scored from 0 to 7 (death). This model allows for discrimination of the disease progression (local site, neuronal spread, extent of lesion at the dermatome, death) at which the immune system blocks viral progression. In some experiments modifications in the timing, route of administration and mouse strain were evaluated for efficacy of CEL-1000.

[3] = system: plasmodium yoelii sporozoites; assay: Protection from sporozoite challenge in different mouse strains (Table 7); assay type: in vivo; conditions: 25 μg, 2 times at 3 week intervals, TiterMax
Protocol: Since derG alone was able to protect A/J mice against Plasmodium yoelii sporozoites challenge, in the absence of malaria antigen, a similar experiment was conducted to evaluate the protective efficacy of derG in three other mouse strains: BALB/c (H2d), C3H/HeJ (H2K) and hybrid CAF1 (A/J×BALB/c).
Groups of 10 mice were pre-treated 2 times at 3 week intervals with 25 μg of derG in TiterMax™ adjuvant and challenged with 100 Plasmodium yoelii sporozoites. Protective efficacy was evaluated as described above.

[4] = system: plasmodium yoelii sporozoites; assay: Malaria protection assay, G/W peptides (Table 4); assay type: in vivo; conditions: Experiment 2, outbred CD-1 mice; 25 μg twice; 200 sporozoites
Protocol: In particular, mice were immunized twice at three week intervals with 25 μg of the subunits (W or G) used to make the L.E.A.P.S.™ construct (GW), and were challenged with 200 plasmodium yoelii sporozoites 2 weeks after the second immunization. Protective efficacy was evaluated by thin blood smears every other day starting 4 days after the challenge. Mice were considered protected if no blood stage parasites were detectable by 14 days after challenge.

[5] = Balb/c mice, dose 25 μg, Table 5
[6] = A/J mice, dose 5 μg, serum pool 4 days before challenge
[7] = A/J mice, dose 25 μg, serum pool 4 days before challenge
[8] = A/J mice, dose 1.25 μg, Table 6

Row | Substance | IFN-γ serum (IFN-γ; dose 5 μg) | IFN-γ serum (IFN-γ; dose 25 μg) | Protection (%) ([2]; A/J mice, dose 5 μg, Table 5) | Protection Protected/Tested ([2]; A/J mice, dose 5 μg, Table 5) | Protection (%) ([2]; A/J mice, dose 5 μg, Table 6) | Protection Protected/Tested ([2]; A/J mice, dose 5 μg, Table 6) | Protection (%) ([2]; A/J mice, dose 25 μg, Table 5) | Protection Protected/Tested ([2]; A/J mice, dose 25 μg, Table 5) | Protection (%) [2, 5] | Protection Protected/Tested [2, 5] | Antibody ELISA A490* (SF/GF peptide; [6]) | Antibody ELISA A490* (SF/GF peptide; [7]) | Antibody ELISA A490* (SF/GF peptide; Balb/c mice, dose 25 μg) | Protection (%) ([2]; A/J mice, dose 10 μg, Table 6) | Protection Protected/Tested ([2]; A/J mice, dose 10 μg, Table 6) | also measured
1 | DGQEEKAGGVVSTGLIGGGamide (DGQEEKAGGVVSTGLIGGG-NH2) [derG(19), derG with an additional glycine inserted between the A 140 and V 142 residues] | – | – | – | – | – | – | – | – | – | – | – | – | – | – | – | % Protected ([1]; Lot 1): 40%; Protected/Total ([1]; Lot 1): 4/10; % Protected ([1]; Lot 2): 30%; Protected/Total ([1]; Lot 2): 3/10; % Protected ([1]; Lot 3): 50%; Protected/Total ([1]; Lot 3): 5/10
2 | DGQEEKAGVVSTGLIGGGSFPMNEESPLGFSPEEMEAVASKFR [derG-GF/SF] | 7,000 pg/mL | 6,000 pg/mL | (80%) | 8/10 | (10%) | 1/10 | (100%) | 10/10 | (0%) | 0/10 | 1,933 | 10,694 | 17,019 | – | – | –
3 | DGQEEKAGVVSTGLIGGGamide (DGQEEKAGVVSTGLIGGG-NH2) [derG, modified fragment from MHC II β-chain (a.a.135-149)] | 40,000 pg/mL | 18,000 pg/mL | (100%) | 10/10 | (100%) | 10/10 | (100%) | 10/10 | (0%) | 0/10 | 2 | 2 | 4 | – | – | Protection (B16 melanoma; first value named of two experiments): 30%; Protection (B16 melanoma; second value named of two experiments): 40%; % Protected ([1]; form 18): 90%; Protected/Total ([1]; form 18): 9/10; protection from lethal HSV-1 challenge (HSV-1): protects; Protection (HSV-1; intramuscularly 2 weeks prior to challenge, without adjuvant, in aqueous solution): 100%; onset of symptoms, morbidity and mortality (HSV-1; single dose of 25 μg, timing of administration): delay in onset of symptoms; Protection (%) [2, 8]: (60%); Protection Protected/Tested [2, 8]: 6/10; Protection (%) ([2]; A/J mice, dose 2.5 μg, Table 6): (80%); Protection Protected/Tested ([2]; A/J mice, dose 2.5 μg, Table 6): 9/10; Protection ([3]; A/J mice): 80; Protection ([3]; BALB/c mice): 0; Protection ([3]; C3H mice): 40; Protection ([3]; CAF1 hybrid mice): 40
4 | DLLKNGERIEKVEGGG SFPMNEESPLGFSPEEMEAVASKFR [J-GF/SF] | 0 pg/mL | 4,000 pg/mL | (10%) | 1/10 | – | – | (100%) | 10/10 | (0%) | 0/10 | 1,103 | 6,121 | 11,454 | (56%) | 5/9 | –
5 | DLLKNGERIEKVEGGG [J, short fragment from β2-microglobulin (a.a. 38-50)] | – | – | (10%) | 1/10 | – | – | (10%) | 1/10 | (0%) | 0/10 | 1 | 2 | 2 | (10%) | 1/10 | –
6 | NGQEEKAGVVSTGLIGGGamide (NGQEEKAGVVSTGLIGGG-NH2) [G + TM] | – | – | – | – | – | – | – | – | – | – | – | – | – | – | – | activity compared with derG (B16 melanoma; differences from derG): much less active; # Protected/# tested [4]: 6/16; % protection [4]: 38%
7 | SFPMNEESPLGFSPEEMEAVASKFR [GF/SF] | 10,000 pg/mL | 12,500 pg/mL | (30%) | 3/10 | (10%) | 1/10 | (100%) | 10/10 | – | – | 8,443 | 19,970 | – | (50%) | 5/10 | –
